Assay results from patent EP4772500A1, “NOVEL ISOXAZOLE COMPOUND AS TM4SF5-SPECIFIC INHIBITOR AND USE THEREOF” (Seoul National University R&DB Foundation, priority 2023, dated 2025).

Test system: TM4SF5-non-expressing cells (SNU449Cp)
Assay: Western blotting for signaling factor phosphorylation in TM4SF5-non-expressing cells
Assay type: cell-based, human
Description: Cell extracts were obtained from cells grown to a density of 70-80% without any treatment, or from cells treated with vehicle DMSO or drugs at the given concentrations for 24 hours. For the extract of hepatocytes or liver cancer cells, a lysis buffer (150 mM NaCl, 1% NP-40, 50 mM Tris-HCl, 0.25% sodium deoxycholate, pH 7.4) including a protease inhibitor cocktail (GenDEPOT) was used. In addition, after washing animal liver tissue twice with PBS, SDS, Na3VO4, and protease inhibitor cocktails (GenDEPOT) were added to a lysis buffer [50 mM Tris-HCl, pH 7.4, 1% NP40, 0.25% sodium deoxycholate, 150 mM NaCl, 1 mM EDTA (based on 500 ml)], followed by treatment at 4°C for 15 minutes. After centrifugation at 13,000 rpm at 4°C for 30 minutes, only the supernatant was transferred to a new microcentrifuge tube. After quantification using BCA reagent (Thermo Scientific), a 4 × sample buffer [100% glycerol 4 ml, Tris-HCl, pH 6.8, 2.4 ml, SDS 0.8 g, Bromophenol blue 4 mg, betamercaptoethanol 0.4 ml, H2O 3.1 ml (based on 10 ml)] was added, followed by boiling at 100°C for 5 minutes. After performing SDS-PAGE electrophoresis with the above samples and transferring them to Nitrocellulose Membranes Protran™ nitrocellulose membranes (Whatman), pre-treatment was performed with 5% skim milk for 1 hour. After pre-treatment, primary antibodies of p-FAK(Y861) (SC-16663), p-FAK(Y577) (SC-16665), c-Src (SC-8056), STAT3 (SC-8019), p-AKT 1/2/3(S473) (SC-7985), STATS (SC-835), Laminin γ2 (SC-393225), COL1A1 (SC-28657), CCL5(RANTES) (SC-514019) CCL20(MIP-3α) (SC-517441), SIRT1 (SC-74465), ChREBP (SC-515922), SREBP1 (SC-366513), DGAT1 (SC-271934), DGAT2 (SC-293211), MICA/B (SC-137242), SLAMF7 (SC-390840), α-tublin (SC-5286), β-actin (SC-47778), FUCA (SC-365496) (the above from Santa Cruz Biotech, USA), p-FAK(Y397) (cat # 611723), FAK (cat # 610088), p27 (cat # 610242) (the above from BD Transduction, USA), p-FAK(Y925) (#3284) p-c-Src(Y416) (#2101), p-STAT3(Y705) (#9145), p70S6K1 (#9202), p-p70S6K1(T389) (#9205), p-STAT5(Y694) (#9314), ACC (#3676), FASN (#3189), CPT1A (#12252), p-ACC(S79) (#11818), HA (#3724), PD-L1 (#13684), PD-1 (#86163), p-ERK1/2(T202/Y204) (#9101s), ERK1/2 (#9102s) (the above from Cell Signaling Tech., USA), pS10p27(S10) (ab62364), human SLAMF6 (ab224201), TIGIT (ab233404), CD34 (ab81289) (the above from Abcam, UK), mouse SLAMF6 (PA5-87823), NKG2D (PA5-102038) (the above from Thermofisher, USA), α-SMA (Sigma Aldrich, A5228), CCL2 (Invitrogen, MA5-17040), and CD155(PVR) (Biolegend, 337601), HA (Biolegend, USA), Strep-HRP(horse-radish peroxidase), StrepMAB-HRP (IBA, USA), AFP (FineTest, FNab00203) were reacted at 4°C for 15 hours. The next day, secondary antibodies were reacted, and development was performed on X-ray film using ECL (Pierce, USA). Anti-TM4SF5C-ter (epitope region of RKKQDTPH^197) and anti-TM4SF5EC2 (CLMNGEWGYHFEDTAGA^130) were custom-made at a professional antibody production company (Pro-Sci, Poway, CA, USA).
(a) Cell extracts were obtained after treating TM4SF5-non-expressing cells (SNU449Cp) and TM4SF5-expressing cells (SNU449T7) with vehicle (DMSO), ST-2-001, or an ST-2-001-based derivative drug at a concentration of 5 µM for 24 hours. (b) Cell extracts were obtained after treating SNU449Cp and SNU449T7 with DMSO, ST-2-001, ST-3-001, ST-3-006, ST-3-007, ST-3-010, or ST-3-011 at a concentration of 5 µM for 24 hours. (c) Cell extracts were obtained after treating SNU449Cp and SNU449T7 with DMSO, ST-2-001, ST-3-006, or ST-3-011 at the given concentrations for 24 hours. (a-c) Using the cell extracts obtained after the drug treatment, Western blotting was performed for signaling factors whose phosphorylation and activity increase in a TM4SF5-expression dependent manner.

[1] = 5 µM, 24 hours (FIG. 9a-b, blue-lined boxes)
[2] = given concentrations, 24 hours (FIG. 9c)

Compound | phosphorylation of some signaling factors [1] | phosphorylation of some signaling factors [2]
COc1ccc(-c2cc(-c3cccc(NC(C)=O)c3)no2)cc1 [ST-3-011, N-(3-(5-(4-methoxyphenyl)isoxazole-3-yl)phenyl)acetamide] | increased | increased
COc1ccc(-c2cc(-c3ccc(NC(C)=O)cc3)no2)cc1 [ST-2-001, N-(4-(5-(4-methoxyphenyl)isoxazole-3-yl)phenyl)acetamide] | – | increased
CC(=O)Nc1ccc(-c2cc(-c3ccc(F)cc3)on2)cc1 [ST-3-006, N-(4-(5-(4-fluorophenyl)isoxazole-3-yl)phenyl)acetamide] | increased | increased
